Results from paper PMC10674894 (Viruses, 2023).

What was measured:
Vero cells = test: Cytotoxicity MTT assay in Vero cells (MNTD, CC50); type: cell-based, African green monkey
CHIKV DRDE-07 = test: In vitro screening against CHIKV (CPE inhibition and MTT cell viability); type: cell-based, chikungunya virus; conditions: for % Cell viability / CPE: Table S1, CHIKV-infected Vero cells; for % Cell viability: MTT assay; for CPE: arbitrary score of cytopathic effect at >48 hpi

| Compound | MNTD (Vero cells; Table S1, Vero cells) [µM] | % Cell viability (CHIKV DRDE-07; 72 hpi) [%] | CPE (CHIKV DRDE-07) | MNTD (Vero cells; maximum nontoxic dose in Vero cells, MTT) [µM] | Cell Viability (CHIKV DRDE-07; CHIKV-infected Vero cells treated at MNTD, 72 hpi, MTT, cell control + DMSO = 100%) [%] |
| --- | --- | --- | --- | --- | --- |
| CC1=C(C(=O)OCCN(C)C)C(c2ccc(O)cc2)NC(=O)N1 (stereo not shown) [DCR110, 2-(dimethylamino)ethyl 4-(4-hydroxyphenyl)-6-methyl-2-oxo-1,2,3,4-tetrahydropyrimidine-5-carboxylate] | 62.5 | 12.01 | ++++ (>60% (++++)) | – | – |
| CC1(C)CC(=O)C2=C(C1)OC1=C(C(=O)CC(C)(C)C1)C2c1cccc(O)c1 [DCR123, 9‐(3‐hydroxyphenyl)‐3,3,6,6‐tetramethyl‐2,3,4,5,6,7,8,9‐octahydro‐1H‐xanthene‐1,8‐dione] | 125 | 12.01 | ++++ (>60% (++++)) | – | – |
| CCOc1ccc(C2NC(=O)NC(C)=C2C(=O)OCC[N+](C)(C)C)cc1 (stereo not shown) [DCR75, {2-[4-(4-ethoxyphenyl)-6-methyl-2-oxo-1,2,3,4-tetrahydropyrimidine-5-carbonyloxy]ethyl}trimethylazanium] | 31.25 | 10.21 | ++++ (>60% (++++)) | – | – |
| CC1=C(C(=O)OCCN(C)C)C(c2ccc(Cl)cc2)NC(=O)N1 (stereo not shown) [DCR108, 2-(dimethylamino)ethyl 4-(4-chlorophenyl)-6-methyl-2-oxo-1,2,3,4-tetrahydropyrimidine-5-carboxylate] | 62.5 | 13.99 | ++++ (>60% (++++)) | – | – |
| CC(=O)Cc1noc(-c2ccc([N+](=O)[O-])cc2)n1 [DCR77, 1-[5-(4-nitrophenyl)-1,2,4-oxadiazol-3-yl]propan-2-one] | 125 | 10.43 | ++++ (>60% (++++)) | – | – |
| O=C1NC(c2cccc(Cl)c2)c2c(ccc3ccccc23)O1 (stereo not shown) [DCR68, 1-(3-chlorophenyl)-1H,2H,3H-naphtho[1,2-e][1,3]oxazin-3-one] | 53.27 | 10.84 | ++++ (>60% (++++)) | – | – |
| Clc1ncccc1Oc1cc2c(c3ncccc13)Oc1ncccc1O2 [DCR 3, 7-[(2-chloropridin-3-yl)oxy]-5,12-dioxa-1,11-diazatetraphene] | 50 | – | ++ (50-30% (++)) | 50 | 69.9 |
| COc1ccc(C2C3=C(CC(C)(C)CC3=O)OC3=C2C(=O)CC(C)(C)C3)cc1 [DCR128, 9‐(4‐methoxyphenyl)‐3,3,6,6‐tetramethyl‐2,3,4,5,6,7,8,9‐octahydro‐1H‐xanthene‐1,8‐dione] | 125 | 11.01 | ++++ (>60% (++++)) | – | – |
| C/C(=N\NC(=O)c1ccncc1)c1c(O)ccc2ccccc12 [DCR52, N'-[(1E)-1-(2-hydroxynaphthalen-1-yl)ethylidene]pyridine-4-carbohydrazide] | 31.25 | 30.87 | ++++ (>60% (++++)) | – | – |
| Cc1ccccc1/C=N/NC(=O)c1ccncc1 [DCR30, (E)-N'-(2-methylbenzylidene)isonicotinohydrazide] | 62.5 | 23.8 | ++++ (>60% (++++)) | – | – |
| O=C(N/N=C/c1ccccc1Br)c1cccnc1 [DCR23, (E)-N'-(2-bromobenzylidene)nicotinohydrazide] | 15.6 | 28.01 | ++++ (>60% (++++)) | – | – |
| CC(=O)Cc1noc(-c2ccccn2)n1 [DCR84, 1-[5-(pyridin-2-yl)-1,2,4-oxadiazol-3-yl]propan-2-one] | 125 | 2.86 | ++++ (>60% (++++)) | – | – |
| COc1ccc(C2NC(=O)NC(C)=C2C(=O)OCCc2ccccc2)cc1 (stereo not shown) [DCR97, 2-phenylethyl 4-(4-methoxyphenyl)-6-methyl-2-oxo-1,2,3,4-tetrahydropyrimidine-5-carboxylate] | 170.57 | 11.19 | ++++ (>60% (++++)) | – | – |
| O=C(N/N=C/c1ccccc1[N+](=O)[O-])c1ccncc1 [DCR35, (E)-N'-(2-nitrobenzylidene)isonicotinohydrazide] | 62.5 | 9.84 | ++++ (>60% (++++)) | – | – |
| N#Cc1c(F)cccc1N1CCCCC1 [DCR141, 2-Fluoro-6-piperidin-1-yl-benzonitrile] | 125 | 19.24 | ++++ (>60% (++++)) | – | – |
| O=C(N/N=C/c1cccc(Br)c1)c1ccncc1 [DCR37, (E)-N'-(3-bromobenzylidene)isonicotinohydrazide] | 31.25 | 14.36 | ++++ (>60% (++++)) | – | – |
| O=C(N/N=C/c1cccc([N+](=O)[O-])c1)c1cccnc1 [DCR19, (E)-N'-(3-nitrobenzylidene)nicotinohydrazide] | 62.5 | 20.39 | ++++ (>60% (++++)) | – | – |
| C#CCOC(=O)C1=C(C)NC(=O)NC1c1ccc(OCC)cc1 (stereo not shown) [DCR94, prop-2-yn-1-yl 4-(4-ethoxyphenyl)-6-methyl-2-oxo-1,2,3,4-tetrahydropyrimidine-5-carboxylate] | 198.83 | 19.5 | ++++ (>60% (++++)) | – | – |

| Compound | MNTD (Vero cells; Table S1, Vero cells) [µM] | % Cell viability (CHIKV DRDE-07; 72 hpi) [%] | CPE (CHIKV DRDE-07) | MNTD (Vero cells; maximum nontoxic dose in Vero cells, MTT) [µM] | Cell Viability (CHIKV DRDE-07; CHIKV-infected Vero cells treated at MNTD, 72 hpi, MTT, cell control + DMSO = 100%) [%] |
| --- | --- | --- | --- | --- | --- |
| O=C(CCl)NNC(=O)c1ccncc1 [DCR12, N'-(2-chloroacetyl)isonicotinohydrazide] | 31.25 | 16.34 | ++++ (>60% (++++)) | – | – |
| O=C(O)c1ccc(-c2cc(-c3ccc(O)cc3)nn2C(=O)c2cccnc2)cc1 [DCR62, 4-[3-(4-hydroxyphenyl)-1-(pyridine-3-carbonyl)-1H-pyrazol-5-yl]benzoic acid] | 31.25 | -27.93 | ++++ (>60% (++++)) | – | – |
| O=C(N/N=C/c1cccc([N+](=O)[O-])c1)c1ccncc1 [DCR34, (E)-N'-(3-nitrobenzylidene)isonicotinohydrazide] | 62.5 | 6.42 | ++++ (>60% (++++)) | – | – |
| CCOc1ccc(/C=N/NC(=O)c2ccncc2)cc1OC [DCR32, (E)-N'-(4-ethoxy-3-methoxybenzylidene)isonicotinohydrazide] | 31.25 | 6.03 | ++++ (>60% (++++)) | – | – |
| Fc1ccc(C2c3c(ccc4ccccc34)Oc3ccc4ccccc4c32)cc1 [DCR117, 2‐(4‐fluorophenyl)‐13‐oxapentacyclo[12.8.0.0³,¹².0⁴,⁹.0¹⁷,²²]docosa‐1(14),3,5,7,9,11,15,17(22),18,20‐decaene] | 125 | 14.01 | ++++ (>60% (++++)) | – | – |
| CC1=C(C(=O)OCCN(C)C)C(c2ccc(C)cc2)NC(=O)N1 (stereo not shown) [DCR74, 2-(dimethylamino)ethyl 6-methyl-4-(4-methylphenyl)-2-oxo-1,2,3,4-tetrahydropyrimidine-5-carboxylate] | 31.25 | 12.75 | ++++ (>60% (++++)) | – | – |
| O=C(N/N=C/c1ccco1)c1ccncc1 [DCR36, (E)-N'-(furan-2-ylmethylene)isonicotinohydrazide] | 62.5 | 5 | ++++ (>60% (++++)) | – | – |
| Cc1ccc(-c2cc(-c3ccc(O)cc3)nn2C(=O)c2cccnc2)cc1 [DCR57, 4-[5-(4-methylphenyl)-1-(pyridine-3-carbonyl)-1H-pyrazol-3-yl]phenol] | 31.25 | 24.84 | ++++ (>60% (++++)) | – | – |
| CC(=O)NNC(=O)c1ccncc1 [DCR13, N'-acetylisonicotinohydrazide] | 62.5 | 15.07 | ++++ (>60% (++++)) | – | – |
| COc1cccc(N2CCCCC2)c1C#N [DCR143, 2-Methoxy-6-piperidin-1-yl-benzonitrile] | 125 | 17.42 | ++++ (>60% (++++)) | – | – |
| COc1ccc(COC(=O)C2=C(C)NC(=O)NC2c2ccc(OC)cc2)cc1 (stereo not shown) [DCR101, 4-methoxybenzyl 4-(4-methoxyphenyl)-6-methyl-2-oxo-1,2,3,4-tetrahydropyrimidine-5-carboxylate] | 250 | 7.02 | ++++ (>60% (++++)) | – | – |
| O=C(O)c1ccc(/C=N/NC(=O)c2cccnc2)cc1 [DCR28, (E)-4-((2-nicotinoylhydrazono)methyl)benzoic acid] | 62.5 | 15.63 | ++++ (>60% (++++)) | – | – |
| COc1ccc(C2NC(=O)NC(C)=C2C(=O)OCC(C)C)cc1 (stereo not shown) [DCR99, 2-methylpropyl 4-(4-methoxyphenyl)-6-methyl-2-oxo-1,2,3,4-tetrahydropyrimidine-5-carboxylate] | 392.64 | 11.29 | ++++ (>60% (++++)) | – | – |
| CC1(C)CC(=O)C2=C(C1)OC1=C(C(=O)CC(C)(C)C1)C2c1cccc([N+](=O)[O-])c1 [DCR129, 3,3,6,6‐tetramethyl‐9‐(3‐nitrophenyl)‐2,3,4,5,6,7,8,9‐octahydro‐1H‐xanthene‐1,8‐dione] | 31.25 | 16.85 | ++++ (>60% (++++)) | – | – |
| CC(=O)NNC(=O)c1cccnc1 [DCR7, N'-acetylnicotinohydrazide] | 62.5 | 20.31 | ++++ (>60% (++++)) | – | – |
| Clc1cccc(C2c3c(ccc4ccccc34)Oc3ccc4ccccc4c32)c1 [DCR116, 2‐(3‐chlorophenyl)‐13‐oxapentacyclo[12.8.0.0³,¹².0⁴,⁹.0¹⁷,²²]docosa‐1(14),3,5,7,9,11,15,17(22),18,20‐decaene] | 31.25 | 10.84 | ++++ (>60% (++++)) | – | – |
| COc1ccc(-c2nc(CC(C)=O)no2)cc1 [DCR76, 1-[5-(4-methoxyphenyl)-1,2,4-oxadiazol-3-yl]propan-2-one] | 125 | 19.42 | ++++ (>60% (++++)) | – | – |
| O=C1NC(c2ccc(Cl)cc2)c2c(ccc3ccccc23)O1 (stereo not shown) [DCR64, 1-(4-chlorophenyl)-1H,2H,3H-naphtho[1,2-e][1,3]oxazin-3-one] | 31.25 | -3.8 | ++++ (>60% (++++)) | – | – |
